# Data as given in patent US11725015B2, “Macrocyclic compound and uses thereof” (President and Fellows of Harvard College, priority 2017, dated 2023).
# Legend:
# [1] = test system: human synovial sarcoma cell line HS-SY-II; assay: HS-SY-II growth inhibition assay; assay type: cell-based; details: 3 days incubation, CellTiter-Glo
# Description: In this assay, the growth inhibitory activities of test compounds in the human synovial sarcoma cell line HS-SY-II were measured. […] cells were maintained in a DMEM medium containing 10% FBS, penicillin, and streptomycin in a 5% CO2 incubator (37° C.). To each well of a 96-well plate (Becton, Dickinson and Company, 353219), 100 μL of a HS-SY-II cell suspension adjusted to a concentration of 3×10^4 cells/mL with the culture medium was added, and the cells were incubated overnight in a 5% CO2 incubator (37° C.). On the next day, 100 μL of Compound (1) or Halichondrin B in three-fold dilution series suspended in the culture medium was added to each well, and the resultant was incubated for 3 days in a 5% CO2 incubator (37° C.). Then, cell viability was determined by CellTiter-Glo® Luminescent Cell Viability Assay (Promega) with EnVision 2103 Multilabel Reader (Perkin-Elmer, Wellesley, Mass.). Value of the wells containing cells without adding the test compounds was defined as 100% and the value of the wells containing no cells was defined as 0%. The concentrations of the test compounds necessary for inhibiting the cell growth by 50% (i.e., an IC50 value) were calculated, and are shown in Table 17.
# [2] = test system: α-SMA positive-CAFs in the FaDu subcutaneous model; assay: Effect on α-SMA positive-CAFs in the FaDu subcutaneous model (Test Example 10); assay type: in vivo, mice; details: two days after administration
# Description: A human squamous cell carcinoma of the head and neck (SCCHN) cell line FaDu, which had been cultured in an RPMI-1640 medium containing 10% FBS, and penicillin and streptomycin, was adjusted to a concentration of 5×10^7 cells/mL with PBS to prepare a cell suspension. The cell suspension was inoculated in a volume of 100 μL into a subcutaneous part of a right flank of nude mice, 5 to 6 weeks of ages (CAnN.Cg-Foxnlnu/CrlCrlj, female, Charles River Laboratories Japan, Inc.). Ten days after cell inoculation, a test compound in saline with 100 μM of hydroxypropyl-β-cyclodextrin was intravenously administered at ½ MTD and MTD. The experiment was conducted on groups each consisting of 3 mice. Two days after administration, tumor samples were collected and fixed with IHC Zinc Fixative (BD Pharmingen) at 4° C. for 24 hr. Paraffin-embedded tissues were sectioned (3 μm), mounted on positively charged slides, and air-dried for 6 hr. Immunohistochemical staining of α-SMA was conducted using Ventana autostainer model Discover XT (Roche Diagnostics). Sections were deparaffinized, conditioned and the antigens were retrieved with proprietary buffers, EZPrep and CC1 (Ventana Medical Systems). Mouse anti-α-SMA monoclonal antibody conjugated with alkaline phosphatase (clone 1A4, Sigma) was applied at 5 μg/mL. Sections were incubated with the antibody for 6 hr. The detection was performed with RedMap kit (Ventana Medical Systems, Inc). Sections were dehydrated in graded ethanols, defatted in xylene replacement and covered with DPX (Merck KGaA). The serial tumor slices were deparaffinized and stained with Mayer's hematoxylin (Muto Pure Chemicals) for 1 min. Sections were dehydrated in graded ethanols, defatted in xylene replacement and covered with DPX (Merck KGaA).
# Immunostained slides were scanned using Vectra 2 Automated Slide Imaging System (Perkin Elmer Inc.). The area of the α-SMA-positive region in the whole tumor was quantified by counting the α-SMA-positive objects using inForm 2 software (PerkinElmer Inc.). Area of the tumor region was measured by assessing the hematoxylin-staining area using in Form 2 software (PerkinElmer Inc.). The area of the α-SMA positive region was normalized by the area of the tumor region. A suppression rate of the α-SMA positive area of the test compound-dosing group was calculated with the below formula, and shown in Table 10.
# [3] = test system: human gastric cancer cell line MKN-28; assay: MKN-28 growth inhibition assay; assay type: cell-based; details: 3 days incubation, CellTiter-Glo
# Description: In this assay, the growth inhibitory activities of test compounds in human gastric cancer cell lines NCI-N87 and MKN-28 were measured, respectively. NCI-N87 and MKN-28 cells were maintained in RPMI-1640 medium containing 10% FBS, penicillin and streptomycin in a 5% CO2 incubator (37° C.). To each well of a 96-well plate (Becton, Dickinson and Company, 353219), 100 μL of NCI-N87 or MKN-28 cell suspension adjusted to a concentration of 3×10^4 cells/mL with the culture medium was added, and the cells were incubated overnight in a 5% CO2 incubator (37° C.). On the next day, 100 μL of Compound (1) or Halichondrin B in three-fold dilution series suspended in the culture medium was added to each well, and the resultant was incubated for 3 days in a 5% CO2 incubator (37° C.). Then, cell viability was determined by CellTiter-Glo® Luminescent Cell Viability Assay (Promega) with EnVision 2103 Multilabel Reader (Perkin-Elmer, Wellesley, Mass.). Value of the wells containing cells without adding the test compounds was defined as 100% and the value of the wells containing no cells was defined as 0%. The concentrations of the test compound necessary for inhibiting the cell growth by 50% (i.e., an IC50 value) were calculated and are shown in Table 14.
# [4] = test system: FaDu subcutaneous xenograft; assay: Antitumor effects in FaDu subcutaneous xenograft model in mice as monotherapy; assay type: in vivo
# Description: A human squamous cell carcinoma of the head and neck (SCCHN) cell line FaDu, which had been cultured in an RPMI-1640 medium containing 10% FBS, and penicillin and streptomycin, was adjusted to a concentration of 4.8×10^7 cells/mL with Hanks' Balanced Salt Solution to prepare a cell suspension. The cell suspension was inoculated in a volume of 100 μL into a subcutaneous part of a right flank of nude mice, 7 weeks of ages (CAnN.Cg-Foxn1nu/CrlCrlj, female, Charles River Laboratories Japan Inc.).
# On the basis of the volumes of tumors obtained on the first day of administration, the mice were grouped such that averages of the tumor volumes were substantially equal among the groups. Each test compound was dissolved in DMSO and a solution was stored at the freezer before use. Immediately before the administration, the stock solution was diluted in saline with 100 μM of hydroxypropyl-β-cyclodextrin. Each evaluation sample was intravenously administered at a maximum tolerable dose (MTD). Incidentally, the experiment was conducted on groups each consisting of 4 mice.
compound,measurement,setting,value
C=C1C[C@@H]2CC[C@@]34C[C@H]5O[C@H]6[C@@H](O3)[C@H]3O[C@H](CC[C@@H]3O[C@H]6C5O4)CC(=O)O[C@@H]3[C@@H](C)[C@@H]4O[C@@H]5C[C@]6(C[C@@H]7O[C@]8(C[C@H](C)[C@@H]9O[C@H](CN)[C@H](O)C[C@@H]9O8)C[C@H](C)[C@@H]7O6)O[C@@H]5C[C@@H]4O[C@H]3C[C@H]3O[C@@H](CC[C@@H]1O2)C[C@@H](C)C3=C [Compound (1)],IC50,[1],0.002 nM
same,Suppression rate of α-SMA positive area (%),[2]; 0.10 mg/kg intravenously,21%
same,Suppression rate of α-SMA positive area (%),[2]; 0.20 mg/kg intravenously,28%
same,IC50,[3],0.015 nM
same,Tumor Regression (%),[4]; 0.2 mg/kg intravenously (MTD),43%
"C=C1C[C@@H]2CC[C@@]34C[C@H]5O[C@H]6[C@@H](O3)[C@H]3O[C@H](CC[C@@H]3O[C@H]6[C@H]5O4)CC(=O)O[C@@H]3[C@@H](C)[C@@H]4O[C@@H]5C[C@]6(C[C@@H]7O[C@]8(C[C@H](C)[C@@H]9O[C@H]([C@@H](O)C[C@@H](O)CO)C[C@@H]9O8)C[C@H](C)[C@@H]7O6)O[C@@H]5C[C@@H]4O[C@H]3C[C@H]3O[C@@H](CC[C@@H]1O2)C[C@@H](C)C3=C [Halichondrin B, reference compound]",IC50,[1],0.01 nM
same,Suppression rate of α-SMA positive area (%),[2]; 0.025 mg/kg intravenously,7%
same,Suppression rate of α-SMA positive area (%),[2]; 0.05 mg/kg intravenously,3%
same,IC50,[3],0.017 nM
same,Tumor Regression (%),[4]; 0.05 mg/kg intravenously (MTD),0%
